Measurements as given in patent publication US20240174618A1, “SUBSTITUTED (2-HETEROARYLOXYPHENYL)SULFONATES, SALTS THEREOF AND THEIR USE AS HERBICIDAL AGENTS” (Bayer Aktiengesellschaft, priority 2021, published 2024).

How the values were obtained:
Format in all cases: in vivo
[1] = test system: Abutilon theophrasti (ABUTH); assay: A. Herbicidal pre-emergence efficacy, ABUTH; conditions: scored visually after about 3 weeks vs untreated controls
Procedure, shortened: (§1)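 Applied before emergence onto covering soil at rates of 1280 g/ha or less, using 600 L/ha spray water with 0.5% additive. Scoring: visual % efficacy after ~3 weeks, greenhouse.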

[2] = test system: Stellaria media (STEME); assay: A. Herbicidal pre-emergence efficacy, STEME
Procedure, shortened: as §1

[3] = test system: Setaria viridis (SETVI); assay: B. Herbicidal post-emergence efficacy, SETVI
Procedure, shortened: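 First, seeds were sown in sandy loam and grown 2 to 3 weeks under controlled greenhouse conditions. Next, foliage at the one-leaf stage received the formulated compound in water with 0.5% additive (600 L/ha, 1280 g/ha or less). Finally, damage was rated visually after about 3 weeks against untreated plants.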

[4] = test system: Amaranthus retroflexus (AMARE); assay: C. Herbicidal pre-emergence efficacy, AMARE; conditions: scored after about 3 weeks
Procedure, shortened: (§2)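 Pre-emergence test: formulated compounds sprayed as aqueous suspension or emulsion with 0.5% additive at 600 l/ha onto soil covering sown seeds, at rates corresponding to 320 g/ha or less. After about 3 weeks in greenhouse, efficacy scored visually as percent versus untreated controls (100% = plants dead).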

[5] = test system: Setaria viridis (SETVI); assay: C. Herbicidal pre-emergence efficacy, SETVI; conditions: scored after about 3 weeks
Procedure, shortened: as §2

[6] = test system: Echinochloa crus-galli (ECHCG); assay: E. Herbicidal post-emergence efficacy, ECHCG
Procedure, shortened: (§3)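 Visual scoring against untreated plants was done roughly 3 weeks after spraying (0% = no effect, 100% = plants dead). Spray application at 320 g/ha or lower, 600 l/ha water with 0.5% additive, was made onto green parts of one-leaf-stage greenhouse plants grown 2-3 weeks in sandy loam.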

[7] = test system: Setaria viridis (SETVI); assay: E. Herbicidal post-emergence efficacy, SETVI
Description: Seeds of monocotyledonous and dicotyledonous weeds and crop plants were placed in sandy loam in plastic or organic planting pots, covered with soil and cultivated in a greenhouse under controlled growth conditions. 2 to 3 weeks after sowing, the test plants were treated at the one-leaf stage. The compounds of the invention, formulated in the form of wettable powders (WP) or as emulsion concentrates (EC), were then sprayed onto the green parts of the plants as aqueous suspension or emulsion with addition of 0.5% additive at a water application rate of 600 l/ha (converted). After the test plants had been kept in the greenhouse under optimum growth conditions for about 3 weeks, the activity of the preparations was rated visually in comparison to untreated controls.
For example, • 100% efficacy=plants have died, • 0% action=like untreated control plants.
Tables E1a to E12b below show the effects of selected compounds of the general formula (I) according to table 1 on various harmful plants at an application rate corresponding to 320 g/ha or less, which were obtained by the experimental procedure mentioned above.

[8] = test system: Viola tricolor (VIOTR); assay: E. Herbicidal post-emergence efficacy, VIOTR
Procedure, shortened: as §3

| Structure (SMILES) | Pre-emergence efficacy against ABUTH ([1]; 80 g/ha) [%] | Pre-emergence efficacy against ABUTH ([1]; 320 g/ha) [%] | Pre-emergence efficacy against ABUTH ([1]; 1280 g/ha) [%] | Pre-emergence efficacy against STEME ([2]; dosage 320 g/ha) [%] | Pre-emergence efficacy against STEME ([2]; dosage 1280 g/ha) [%] | Post-emergence efficacy against SETVI ([3]; 1280 g/ha) [%] | Pre-emergence efficacy against AMARE ([4]; 80 g/ha) [%] | Pre-emergence efficacy against AMARE ([4]; 320 g/ha) [%] | Pre-emergence efficacy against SETVI ([5]; 80 g/ha) [%] | Pre-emergence efficacy against SETVI ([5]; 320 g/ha) [%] | Post-emergence efficacy against ECHCG in % ([6]; application rate 320 g/ha) [%] | Post-emergence efficacy against SETVI in % ([7]; application rate 320 g/ha) [%] | Post-emergence efficacy against VIOTR in % ([8]; application rate 80 g/ha) [%] | Post-emergence efficacy against VIOTR in % ([8]; application rate 320 g/ha) [%] | Pre-emergence efficacy against STEME ([2]; dosage 80 g/ha) [%] | Post-emergence efficacy against SETVI ([3]; 320 g/ha) [%] | Post-emergence efficacy against ECHCG in % ([6]; application rate 80 g/ha) [%] | Post-emergence efficacy against SETVI in % ([7]; application rate 80 g/ha) [%] |
| --- | --- | --- | --- | --- | --- | --- | --- | --- | --- | --- | --- | --- | --- | --- | --- | --- | --- | --- |
| C=CCCS(=O)(=O)Oc1c(F)cccc1Oc1ncc(Cl)cn1 [Example I-50] | 90 | 100 | 100 | 100 | 100 | 90 | 100 | 100 | 100 | 100 | 100 | 90 | 90 | 100 |  |  |  |  |
| O=S(=O)(CCCC(F)F)Oc1c(F)cccc1Oc1ncc(Cl)cn1 [Example I-56] | 100 | 100 | 100 | 100 | 100 | 90 | 100 | 100 | 100 | 100 | 100 | 100 | 100 | 100 | 100 | 90 | 80 | 80 |
| O=S(=O)(CC1CC1)Oc1ccccc1Oc1ncc(Cl)cn1 [Example I-23] | 90 | 90 | 100 | 100 | 100 | 100 | 100 | 100 | 100 | 100 | 100 | 100 | 100 | 100 | 100 |  |  | 80 |
| O=S(=O)(CCCC(F)(F)F)Oc1c(Cl)cccc1Oc1ncc(Br)cn1 [Example I-34] |  |  | 90 | 90 | 90 | 90 | 100 | 100 | 80 | 100 | 90 | 90 | 100 | 100 |  |  |  | 90 |
| CC(C)CS(=O)(=O)Oc1ccccc1Oc1ncc(Cl)cn1 [Example I-7, [2-(5-Chloropyrimidin-2-yl)oxyphenyl] 2-methylpropane-1-sulfonate] |  | 90 | 100 | 90 | 100 | 90 | 100 | 100 | 100 | 100 | 100 | 100 |  | 90 | 90 |  | 80 | 90 |
| O=S(=O)(CCCC(F)(F)C(F)(F)F)Oc1c(F)cccc1Oc1ncc(Cl)cn1 [Example I-68] |  |  | 100 | 100 | 100 | 90 | 100 | 100 |  | 100 | 90 | 100 | 100 | 100 |  | 90 |  | 100 |
| CCCCCS(=O)(=O)Oc1ccccc1Oc1ncc(Cl)cn1 [Example I-24] |  |  |  | 100 | 100 | 90 | 100 | 100 |  | 80 | 80 | 100 |  | 80 |  |  |  |  |
| O=S(=O)(CCCC(F)(F)F)Oc1c(F)cccc1Oc1ncc(Br)cn1 [Example I-41] |  | 100 | 100 | 100 | 100 | 90 | 100 | 100 | 100 | 100 | 100 | 100 | 100 | 100 | 100 | 90 | 90 | 100 |
| Cc1cccc(OS(=O)(=O)CCCCl)c1Oc1ncc(Cl)cn1 [Example I-12] | 90 | 90 | 100 | 100 | 100 | 90 | 100 | 100 |  |  | 90 | 90 |  | 80 |  |  |  |  |
| CCCS(=O)(=O)Oc1ccccc1Oc1ncc(Cl)cn1 [Example I-3] | 100 | 100 | 100 | 100 | 100 | 90 | 100 | 100 | 100 | 100 | 90 | 90 |  |  | 100 |  |  |  |
| CC(C)CCS(=O)(=O)Oc1ccccc1Oc1ncc(Cl)cn1 [Example I-25] |  |  | 100 | 90 | 100 | 90 | 100 | 100 | 80 | 100 | 100 | 100 |  |  |  | 90 |  |  |
